Results as given in patent US9593305B2, “Differentiation of pluripotent stem cells” (Janssen Biotech, Inc., priority 2008, dated 2017).

What was measured:
[1] = test system: H1 human embryonic stem cells; assay: Analog screening with GDF-8 and growth factor/agonist pool (Example 8, Tables 7 and 8); assay type: cell-based
Description: Briefly, clusters of H1 human embryonic stem cells were grown on reduced growth factor […]™ (Invitrogen; Cat #356231)-coated tissue culture plastic. Cells were passaged using collagenase (Invitrogen; Cat #17104-019) treatment and gentle scraping, washed to remove residual enzyme, and plated with even dispersal at a ratio of 1:1 (surface area) on reduced growth factor […]™-coated 96-well black plates (Packard ViewPlates; PerkinElmer; Cat #6005182) using volumes of 100 μl/well. Cells were allowed to attach as clusters and then recover log phase growth over a 1 to 3 day period, feeding daily with MEF conditioned medium supplemented with 8 ng/ml bFGF (R&D Systems; Cat #233-FB). Plates were maintained at 37° C., 5% CO2 in a humidified box throughout the duration of assay. Growth factors purchased from R&D Systems were EGF (Cat #236-EG), FGF4 (Cat #235-F4), PDGF-A (Cat #221-AA), PDGF-D (Cat #1159-SB), PDGF-A/B (Cat #222-AB). […] Screening was conducted using a library of compounds that were made available as 5 mM stocks in 96-well plate format, solubilized in 100% DMSO (Sigma; Cat #D2650) and stored at −80° C. The compounds were further diluted to an intermediate concentration of 0.2 mM in 50 mM HEPES (Invitrogen; Cat #15630-080), 20% DMSO and stored at 4° C. Test conditions were performed in single wells, feeding on alternate days over a four-day assay period. Primary screening assays were initiated by aspirating culture medium from each well followed by three washes in PBS (Invitrogen; Cat #14190) to remove residual growth factors and serum. On the first day of assay, test volumes of 200 μl per well were added back containing DMEM:F12 base medium (Invitrogen; Cat #11330-032) supplemented with 0.5% FCS (HyClone; […] Cat #1324-WN) plus 2.5 μM compound. All remaining growth factors were tested at a final assay concentration of 50 ng/ml (EGF, FGF4, PDGF-A, PDGF-A/B, VEGF) with the exception of GDF-8 tested at 25 ng/ml. […] Cat #120-14). […] All remaining growth factors were tested at a final assay concentration of 50 ng/ml (EGF, FGF4, PDGF-A, PDGF-A/B, VEGF) with the exception of GDF-8 tested at 25 ng/ml. […] Cat #120-14). Negative control samples contained DMEM:F12 base medium supplemented with 2% FCS. […] At the conclusion of four-days of culture, assay plates were washed twice with PBS (Invitrogen; Cat #14190), fixed with 4% paraformaldehyde (Alexis Biochemical; Cat #ALX-350-011) at room temperature for 20 minutes, then washed three times with PBS and permeabilized with 0.5% Triton X-100 (Sigma; Cat #T8760-2) for 20 minutes at room temperature. Cells were washed again three times with PBS and blocked with 4% chicken serum (Invitrogen; Cat #16110082) in PBS for 30 minutes at room temperature. Primary antibody (goat anti-human SOX17; R&D Systems; Cat #AF1924) was diluted 1:100 in 4% chicken serum and added to each well for one hour at room temperature. Alexa Fluor 488 conjugated secondary antibody (chicken anti-goat IgG; Molecular Probes; Cat #AZ1467) was diluted 1:200 in PBS and added to each sample well after washing three times with PBS. To counterstain nuclei, 4 μg/ml Hoechst 33342 (Invitrogen; Cat #H3570) was added for ten minutes at room temperature. Plates were washed once with PBS and left in 100 μl/well PBS for imaging. Imaging was performed using an IN Cell Analyzer 1000 (GE Healthcare) utilizing the 51008bs dichroic for cells stained with Hoechst 33342 and Alexa Fluor 488. Exposure times were optimized from positive control wells and from untreated negative control wells stained with secondary antibody alone. Images from 15 fields per well were acquired to compensate for any cell loss during the bioassay and subsequent staining procedures. […] Segmentation for the nuclei was determined based on gray-scale levels (baseline range 100-300) and nuclear size. Averages and standard deviations were calculated for each replicate data set. […]

[2] = test system: H1 human embryonic stem cells; assay: Analogue screening in combination with only GDF-8, SOX17 (Example 21, Tables 18 and 19); assay type: cell-based; set-up: Sox17 Expression: % of positive control / Cell Number: % of positive control: tested at 2.5 µM; details: compound in combination with GDF8; for Cell Number: Average Total Cell Number / Sox17 Expression: Average Total Intensity: four assay plates; for Cell Number: % of positive control / Sox17 Expression: % of positive control: relative to Activin A/Wnt3a of the same plate
Description: Briefly, clusters of H1 human embryonic stem cells were grown on reduced growth factor Matrigel™ (Invitrogen; Cat #356231)-coated tissue culture plastic. Cells were passaged using collagenase (Invitrogen; Cat #17104-019) treatment and gentle scraping, washed to remove residual enzyme, and plated with even dispersal at a ratio of 1:1 (surface area) on reduced growth factor […]™ (BD Biosciences; Cat #356231)-coated 96-well black plates (Packard ViewPlates; PerkinElmer; Cat #6005182) using volumes of 100 μl/well. Cells were allowed to attach and then recover log phase growth over a 1 to 3 day time period, feeding daily with MEF conditioned medium supplemented with 8 ng/ml bFGF (R&D Systems; Cat #233-FB). Plates were maintained at 37° C., 5% CO2 in a humidified box throughout the duration of assay.
Screening was conducted using a library of the analogue compounds. Compounds from this library were made available as 5 mM stocks in 96-well plate format, solubilized in 100% DMSO (Sigma; Cat #D2650) and stored at −80° C. The library compounds were further diluted to an intermediate concentration of 0.2 mM in 50 mM HEPES (Invitrogen; Cat #15630-080), 20% DMSO and stored at 4° C. Test conditions were performed in triplicate, feeding on alternating days over a four-day assay period. Assays were initiated by aspirating culture medium from each well followed by three washes in PBS (Invitrogen; Cat #14190) to remove residual growth factors. On the first day of assay, test volumes of 200 μl per well were added to each well using DMEM:F12 base medium (Invitrogen; Cat #11330-032) supplemented with 0.5% FCS (HyClone; Cat #SH30070.03) and 200 ng/ml GDF-8 (R&D Systems, Cat #788-G8) plus 2.5 μM compound. On the third day of assay, test volumes of 100 μl per well were added to each well using DMEM:F12 base medium supplemented with 2% FCS plus 200 ng/ml GDF-8 (R&D Systems, Cat #788-G8). Positive control samples contained the same base medium supplemented with FCS and 1000 ng/ml recombinant human activin A (PeproTech; Cat #120-14) throughout the four-day assay along with Wnt3a (20 ng/ml) on days 1 and 2. Negative control samples contained DMEM:F12 base medium supplemented with FCS, adding Wnt3a on days 1 and 2 but omitting treatment with activin A.
At the conclusion of four-days of culture, assay plates were washed twice with PBS (Invitrogen; Cat #14190), fixed with 4% paraformaldehyde (Alexis Biochemical; Cat #ALX-350-011) at room temperature for 20 minutes, then washed three times with PBS and permeabilized with 0.5% Triton X-100 (Sigma; Cat #T8760-2) for 20 minutes at room temperature. Cells were washed again three times with PBS and blocked with 4% chicken serum (Invitrogen; Cat #16110082) in PBS for 30 minutes at room temperature. Primary antibody (goat anti-human SOX17; R&D Systems; Cat #AF1924) was diluted 1:100 in 4% chicken serum and added to each well for one hour at room temperature. Alexa Fluor 488 conjugated secondary antibody (chicken anti-goat IgG; Molecular Probes; Cat #AZ1467) was diluted 1:200 in PBS and added to each sample well after washing three times with PBS. To counterstain nuclei, 4 μg/ml Hoechst 33342 (Invitrogen; Cat #H3570) was added for ten minutes at room temperature. Plates were washed once with PBS and left in 100 μl/well PBS for imaging.
Imaging was performed using an IN Cell Analyzer 1000 (GE Healthcare) utilizing the 51008bs dichroic for cells stained with Hoechst 33342 and Alexa Fluor 488. Exposure times were optimized from positive control wells and from untreated negative control wells stained with secondary antibody alone. Images from 15 fields per well were acquired to compensate for any cell loss during the bioassay and subsequent staining procedures. Measurements for total cell number and total SOX17 intensity were obtained from each well using IN Cell Developer Toolbox 1.7 (GE Healthcare) software. […]

[3] = Plate 1, compound + EGF, FGF, PDGF-A, VEGF, PDGF-D, muscimol, GDF8
[4] = Plate 1, compound + EGF, FGF, PDGF-A, VEGF, PDGF-D, muscimol, GDF8, positive control Activin A/Wnt3a
[5] = Table 8: hits with greater than 25% activity of the positive control, with GDF-8 and growth factors/agonists

SMILES	Cell Number, Average Total Cell Number [1, 3]	Sox17 Expression, Average Total Intensity [1, 3]	Cell Number, % of positive control [1, 4]	Sox17 Expression, % of positive control [1, 4]	Cell Number, % of positive control [1, 5]	Sox17 Expression, % of positive control [1, 5]	Sox17 Expression, Average Total Intensity [1, 5]	Cell Number: Average Total Cell Number [2]	Sox17 Expression: Average Total Intensity [2]	Cell Number: % of positive control [2] [%]	Sox17 Expression: % of positive control [2] [%]
O=C1CCN2CCN(CC2)Cc2cc(Cl)cc(c2)Nc2ncnc(n2)-c2ccc(F)c(c2)CCCN1 [Compound 24, 5-Chloro-17-fluoro-1,8,10,12,22,26,32-heptaazapentacyclo[24.2.2.1˜3,7˜0.1˜9,13˜0.1˜14,18˜]tritriaconta-3(33), 4,6,9(32), 10,12,14(31), 15,17-nonaen-23-one]	12714	2.46E+08	94.9 % of positive control	98.2 % of positive control	94.9 % of positive control	98.2 % of positive control	2.46E+08	5012	2.64E+07	33.4	7.7
COc1ccc(CCCO)cc1-c1cnc(Nc2cccc(CNC(=O)OC(C)(C)C)c2)o1 [Compound 52, 1,1-Dimethylethyl {[3-({5-[5-(3-hydroxypropyl)-2-(methyloxy)phenyl]-1,3-oxazol-2-yl}amino)phenyl]methyl}carbamate]	–	–	–	–	–	–	–	4932	1.99E+07	32.9	5.8
COc1ccc(-c2ccnc(Nc3cc(Br)cc(CO)c3)n2)cc1CN(C)CCCNC(=O)OC(C)(C)C [Compound 5, 1,1-Dimethylethyl {3-[{[5-(2-{[3-bromo-5-(hydroxymethyl)phenyl]amino}pyrimidin-4-yl)-2-(methyloxy)phenyl]methyl}(methyl)amino]propyl}carbamate]	–	–	–	–	–	–	–	3137	1.30E+07	20.5	3.9
CN1CCC(C(=O)NCc2sc(Nc3cccc(C(F)(F)F)c3)nc2-c2cccnc2)CC1 [Compound 50, 1-Methyl-N-[(4-pyridin-3-yl-2-{[3-(trifluoromethyl)phenyl]amino}-1,3-thiazol-5-yl)methyl]piperidine-4-carboxamide]	–	–	–	–	–	–	–	2666	1.48E+07	19.1	4.8
CN1CCN(S(=O)(=O)c2ccc(Nc3cncc(-c4ccc(CN5CCC(O)CC5)s4)n3)cc2)CC1 [Compound 53, 1-({5-[6-({4-[(4-Methylpiperazin-1-yl)sulfonyl]phenyl}amino)pyrazin-2-yl]thiophen-2-yl}methyl)piperidin-4-ol]	–	–	–	–	–	–	–	2783	6.36E+06	18.2	1.9
CC(C)(C)OC(=O)NCCc1ccc(Nc2nnc(-c3cccc(CCCO)c3)[nH]2)cc1 [Compound 51, 1,1-Dimethylethyl {2-[4-({5-[3-(3-hydroxypropyl)phenyl]-4H-1,2,4-triazol-3-yl}amino)phenyl]ethyl}carbamate]	–	–	–	–	–	–	–	4289	1.70E+07	28.6	4.9
CC(C)(C)OC(=O)NCCCCc1cc(-c2ncnc(Nc3cccc(CO)c3)n2)ccn1 [Compound 4, 1,1-Dimethylethyl {4-[4-(4-{[3-(hydroxymethyl)phenyl]amino}-1,3,5-triazin-2-yl)pyridin-2-yl]butyl}carbamate]	–	–	–	–	–	–	–	3163	1.58E+07	20.7	4.7
O=C(O)CCc1cccc(Nc2ncnc(-c3cccnc3)n2)c1 [Compound 1, 3-{3-[(4-Pyridin-3-yl-1,3,5-triazin-2-yl)amino]phenyl}propanoic acid]	–	–	–	–	–	–	–	3213	6.48E+06	21.0	1.9
